Columns and labels:
CDK7 = target: T1, CDK7 (Homo sapiens, UniProt P50613); test: Kinome screen, CDK7; assay type: binding; details: screened at 1 μM
T1 construct: made in house; host or cells: T7 phage in E. coli (BL21-derived) or HEK-293
Experimental: (§1) Kinase-tagged T7 phage strains were grown in parallel in 24-well blocks in an E. coli host derived from the BL21 strain. E. coli were grown to log-phase and infected with T7 phage from a frozen stock (multiplicity of infection=0.4) and incubated with shaking at 32° C. until lysis (90-150 minutes). The lysates were centrifuged (6,000×g) and filtered (0.2 μm) to remove cell debris. The remaining kinases were produced in HEK-293 cells and subsequently tagged with DNA for qPCR detection.
(§2) Streptavidin-coated magnetic beads were treated with biotinylated small molecule ligands for 30 minutes at room temperature to generate affinity resins for kinase assays. The liganded beads were blocked with excess biotin and washed with blocking buffer (SeaBlock (Pierce), 1% BSA, 0.05% Tween 20, 1 mM DTT) to remove unbound ligand and to reduce non-specific phage binding. […] Test compounds were prepared as 40× stocks in 100% DMSO and directly diluted into the assay. All reactions were performed in polypropylene 384-well plates in a final volume of 0.04 ml. […] The beads were then re-suspended in elution buffer (1×PBS, 0.05% Tween 20, 0.5 μM non-biotinylated affinity ligand) and incubated at room temperature with shaking for 30 minutes. The kinase concentration in the eluates was measured by qPCR.

ALK = target: T2, ALK (Homo sapiens, UniProt Q9UM73); test: Kinome screen, ALK; assay type: binding; details: screened at 1 μM
T2 construct: made in house; host or cells: T7 phage in E. coli (BL21-derived) or HEK-293
T2 sequence (Q9UM73 19-1620): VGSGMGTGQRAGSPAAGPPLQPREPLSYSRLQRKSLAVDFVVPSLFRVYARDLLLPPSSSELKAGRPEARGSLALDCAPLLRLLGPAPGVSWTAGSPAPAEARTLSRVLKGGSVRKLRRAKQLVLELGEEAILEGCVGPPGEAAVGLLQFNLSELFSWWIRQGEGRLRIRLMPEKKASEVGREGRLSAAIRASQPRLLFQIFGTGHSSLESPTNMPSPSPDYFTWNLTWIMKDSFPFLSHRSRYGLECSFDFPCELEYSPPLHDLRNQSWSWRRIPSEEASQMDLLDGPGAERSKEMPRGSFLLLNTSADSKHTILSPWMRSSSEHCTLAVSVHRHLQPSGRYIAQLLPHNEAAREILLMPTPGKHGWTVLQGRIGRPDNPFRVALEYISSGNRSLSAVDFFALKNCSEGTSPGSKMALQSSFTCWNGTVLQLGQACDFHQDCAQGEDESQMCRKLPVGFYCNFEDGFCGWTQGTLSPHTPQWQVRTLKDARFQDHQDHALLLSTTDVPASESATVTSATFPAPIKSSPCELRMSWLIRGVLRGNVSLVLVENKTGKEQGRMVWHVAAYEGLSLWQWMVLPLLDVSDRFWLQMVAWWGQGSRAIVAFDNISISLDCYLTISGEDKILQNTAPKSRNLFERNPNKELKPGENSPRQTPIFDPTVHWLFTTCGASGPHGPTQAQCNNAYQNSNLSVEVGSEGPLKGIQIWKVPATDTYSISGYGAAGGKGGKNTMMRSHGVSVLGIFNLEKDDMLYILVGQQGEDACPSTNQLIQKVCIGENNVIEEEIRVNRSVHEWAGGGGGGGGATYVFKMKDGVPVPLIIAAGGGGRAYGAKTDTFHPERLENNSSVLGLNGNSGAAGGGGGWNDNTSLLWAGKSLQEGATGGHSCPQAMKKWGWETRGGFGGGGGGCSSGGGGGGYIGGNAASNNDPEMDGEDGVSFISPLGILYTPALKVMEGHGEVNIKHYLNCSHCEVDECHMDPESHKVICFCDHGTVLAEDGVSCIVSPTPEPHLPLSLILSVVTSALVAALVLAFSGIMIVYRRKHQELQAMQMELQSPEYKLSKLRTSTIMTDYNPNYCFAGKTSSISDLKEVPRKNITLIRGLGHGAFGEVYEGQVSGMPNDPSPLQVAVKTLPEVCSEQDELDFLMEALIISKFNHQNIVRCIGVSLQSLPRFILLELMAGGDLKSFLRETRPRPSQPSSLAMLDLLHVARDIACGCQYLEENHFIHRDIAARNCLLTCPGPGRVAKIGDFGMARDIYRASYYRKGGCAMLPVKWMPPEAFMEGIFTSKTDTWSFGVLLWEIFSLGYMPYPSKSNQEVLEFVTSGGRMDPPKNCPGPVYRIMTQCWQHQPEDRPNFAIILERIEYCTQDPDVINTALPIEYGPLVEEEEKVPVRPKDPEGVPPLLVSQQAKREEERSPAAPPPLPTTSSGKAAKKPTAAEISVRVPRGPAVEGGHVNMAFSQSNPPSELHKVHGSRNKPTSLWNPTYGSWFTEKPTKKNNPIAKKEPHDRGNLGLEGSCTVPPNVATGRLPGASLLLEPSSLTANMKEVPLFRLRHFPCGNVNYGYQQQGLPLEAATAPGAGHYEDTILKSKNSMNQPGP
Experimental: as §1, §2

PLK4 = target: T3, PLK4 (Homo sapiens, UniProt O00444); test: Kinome screen, PLK4; assay type: binding; details: screened at 1 μM
T3 construct: made in house; host or cells: T7 phage in E. coli (BL21-derived) or HEK-293
Experimental: as §1, §2

VEGFR2 = target: T4, VEGFR2 (Homo sapiens, UniProt P35968); test: Kinome screen, VEGFR2; assay type: binding; details: screened at 1 μM
T4 construct: made in house; host or cells: T7 phage in E. coli (BL21-derived) or HEK-293
Experimental: as §1, §2

PAK4 = target: T5, PAK4 (Homo sapiens, UniProt O96013); test: Kinome screen, PAK4; assay type: binding; details: screened at 1 μM
T5 construct: made in house; host or cells: T7 phage in E. coli (BL21-derived) or HEK-293
T5 sequence (O96013 whole entry): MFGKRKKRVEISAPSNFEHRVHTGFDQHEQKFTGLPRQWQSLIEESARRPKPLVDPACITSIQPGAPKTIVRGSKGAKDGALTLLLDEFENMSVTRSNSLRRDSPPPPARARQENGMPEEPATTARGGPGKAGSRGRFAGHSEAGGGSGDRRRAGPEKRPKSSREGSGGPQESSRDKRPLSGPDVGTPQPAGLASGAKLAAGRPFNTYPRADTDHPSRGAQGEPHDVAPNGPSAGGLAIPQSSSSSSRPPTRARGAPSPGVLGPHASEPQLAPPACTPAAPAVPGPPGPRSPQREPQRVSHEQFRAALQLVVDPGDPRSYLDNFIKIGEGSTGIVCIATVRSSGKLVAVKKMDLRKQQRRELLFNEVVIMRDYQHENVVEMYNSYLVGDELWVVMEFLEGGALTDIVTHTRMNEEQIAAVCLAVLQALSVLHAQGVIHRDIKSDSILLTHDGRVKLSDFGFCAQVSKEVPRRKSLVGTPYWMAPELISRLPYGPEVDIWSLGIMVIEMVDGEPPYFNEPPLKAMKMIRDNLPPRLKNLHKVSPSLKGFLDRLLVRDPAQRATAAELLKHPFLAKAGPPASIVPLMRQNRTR
Experimental: as §1, §2

[1] = tested on: BEAS-2B human lung epithelial cells; test: CellTiter-Glo cell viability/cytotoxicity assay; assay type: cell-based; details: BEAS-2B cells, 48 h, concentration at 15% inhibition threshold
Experimental: A CellTiter-Glo luminescent cell viability/cytotoxicity assay was carried out in BEAS-2B human lung epithelial cells (ATCC) under the normal growth condition.
Cells were grown at 37° C. in a 5% CO2 humidified incubator in 50% DMEM/50% F-12 medium (Life Technologies) supplemented with 10% FBS (Hyclone), 100 U/mL penicillin, 100 μg/mL streptomycin (Life Technologies), and 2 mM GlutaMAX (Life Technologies). On day 1 of the assay, cells were seeded at a 500 cells/well density in white 384-well tissue culture plates (Corning) with 25 μL medium, and were allowed to adhere overnight in the incubator. On day 2 of the assay, 5 μL of medium containing dose-responses of test compounds was added, and incubated at 37° C. for 48 h. 30 μL of CellTiter-Glo detection solution (Promega) was subsequently added, mixed on an orbital shaker for 5 min, and incubated for additional 10 min before being read on the EnVision reader. Luminescence signals were recorded and percent DMSO control values were calculated.
For dose-response analysis, percent DMSO control data were plotted vs. compound concentrations to derive dose-response curves by line connecting each data point. The concentration at which each curve crosses the 15% inhibition threshold is defined as CC15.

35 different kinases = test: Kinome screen: GINI coefficient; assay type: binding; details: panel of 35 different kinases; higher number = more selective
Experimental: as §1
as §2, with “The” for “The beads were then re-suspended in elution buffer (1×PBS, 0.05% Tween 20, 0.5 μM non-biotinylated affinity ligand) and incubated at room temperature with shaking for 30 minutes. The”
Both compounds 1 and C-1 were screened against 35 different kinases. The Gini coefficient was determined for both compounds. […]

CDK9 = target: T6, CDK9 (Homo sapiens, UniProt P50750); test: Kinome screen, CDK9; assay type: binding; details: screened at 1 μM
T6 construct: made in house; host or cells: T7 phage in E. coli (BL21-derived) or HEK-293
T6 sequence (P50750 whole entry): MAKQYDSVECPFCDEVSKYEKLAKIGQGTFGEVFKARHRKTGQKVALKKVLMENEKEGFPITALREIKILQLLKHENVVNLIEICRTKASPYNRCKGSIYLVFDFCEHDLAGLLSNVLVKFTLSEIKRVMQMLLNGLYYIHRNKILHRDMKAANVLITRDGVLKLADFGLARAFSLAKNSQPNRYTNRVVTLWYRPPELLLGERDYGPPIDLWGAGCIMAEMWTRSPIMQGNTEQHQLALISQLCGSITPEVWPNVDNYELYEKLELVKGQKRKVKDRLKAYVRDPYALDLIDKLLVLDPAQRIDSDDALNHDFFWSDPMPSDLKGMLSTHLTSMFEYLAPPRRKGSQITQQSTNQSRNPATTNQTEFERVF
Experimental: as §1, §2

PKAC-ALPHA = target: T7, PKAC-ALPHA (Homo sapiens, UniProt P17612); test: Kinome screen, PKAC-ALPHA; assay type: binding; details: screened at 1 μM
T7 construct: made in house; host or cells: T7 phage in E. coli (BL21-derived) or HEK-293
Experimental: as §1, §2

CSF1R = target: T8, CSF1R (Homo sapiens, UniProt P07333); test: Kinome screen, CSF1R; assay type: binding; details: screened at 1 μM
T8 construct: made in house; host or cells: T7 phage in E. coli (BL21-derived) or HEK-293
T8 sequence (P07333 20-972): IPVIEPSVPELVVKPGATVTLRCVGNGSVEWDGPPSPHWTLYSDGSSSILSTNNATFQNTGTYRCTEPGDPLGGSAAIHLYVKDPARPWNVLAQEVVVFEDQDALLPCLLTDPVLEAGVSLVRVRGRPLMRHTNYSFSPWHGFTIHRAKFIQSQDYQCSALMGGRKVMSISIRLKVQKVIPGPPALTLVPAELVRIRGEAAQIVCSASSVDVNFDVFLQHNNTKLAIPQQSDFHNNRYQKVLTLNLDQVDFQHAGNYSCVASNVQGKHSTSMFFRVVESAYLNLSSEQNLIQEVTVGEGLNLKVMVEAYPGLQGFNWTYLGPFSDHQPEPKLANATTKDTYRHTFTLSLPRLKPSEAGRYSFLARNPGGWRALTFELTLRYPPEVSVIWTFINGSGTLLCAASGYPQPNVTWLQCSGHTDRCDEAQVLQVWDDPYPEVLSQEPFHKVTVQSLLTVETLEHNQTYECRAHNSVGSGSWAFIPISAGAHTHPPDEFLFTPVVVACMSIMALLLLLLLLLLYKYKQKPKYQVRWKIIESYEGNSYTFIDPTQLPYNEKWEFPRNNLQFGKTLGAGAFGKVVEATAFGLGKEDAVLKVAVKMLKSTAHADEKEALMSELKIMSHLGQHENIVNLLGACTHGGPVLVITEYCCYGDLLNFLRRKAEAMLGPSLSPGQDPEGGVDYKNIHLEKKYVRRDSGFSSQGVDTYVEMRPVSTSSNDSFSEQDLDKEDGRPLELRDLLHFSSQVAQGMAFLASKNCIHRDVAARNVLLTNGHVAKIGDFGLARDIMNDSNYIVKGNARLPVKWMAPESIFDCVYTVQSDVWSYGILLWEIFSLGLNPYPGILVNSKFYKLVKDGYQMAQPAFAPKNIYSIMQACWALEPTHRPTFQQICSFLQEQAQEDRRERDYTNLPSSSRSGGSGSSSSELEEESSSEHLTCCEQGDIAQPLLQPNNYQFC
Experimental: as §1, §2

AURKA = target: T9, AURKA (Homo sapiens, UniProt O14965); test: Kinome screen, AURKA; assay type: binding; details: screened at 1 μM
T9 construct: made in house; host or cells: T7 phage in E. coli (BL21-derived) or HEK-293
T9 sequence (O14965 whole entry): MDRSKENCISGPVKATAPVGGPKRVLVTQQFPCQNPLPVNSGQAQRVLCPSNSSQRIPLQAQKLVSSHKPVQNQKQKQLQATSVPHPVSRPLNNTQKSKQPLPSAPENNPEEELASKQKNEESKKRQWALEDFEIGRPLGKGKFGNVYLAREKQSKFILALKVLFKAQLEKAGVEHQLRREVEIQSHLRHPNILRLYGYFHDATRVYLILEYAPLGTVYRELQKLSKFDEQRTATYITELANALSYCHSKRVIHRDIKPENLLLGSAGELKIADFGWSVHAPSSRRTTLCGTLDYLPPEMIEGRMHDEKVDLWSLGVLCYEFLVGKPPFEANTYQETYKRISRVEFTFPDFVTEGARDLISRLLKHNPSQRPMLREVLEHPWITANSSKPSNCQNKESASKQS
Experimental: as §1, §2

CDK2 = target: T10, CDK2 (Homo sapiens, UniProt P24941); test: Kinome screen, CDK2; assay type: binding; details: screened at 1 μM
T10 construct: made in house; host or cells: T7 phage in E. coli (BL21-derived) or HEK-293
Experimental: as §1, §2

GSK3B = target: T11, GSK3B (Homo sapiens, UniProt P49841); test: Kinome screen, GSK3B; assay type: binding; details: screened at 1 μM
T11 construct: made in house; host or cells: T7 phage in E. coli (BL21-derived) or HEK-293
T11 sequence (P49841 whole entry): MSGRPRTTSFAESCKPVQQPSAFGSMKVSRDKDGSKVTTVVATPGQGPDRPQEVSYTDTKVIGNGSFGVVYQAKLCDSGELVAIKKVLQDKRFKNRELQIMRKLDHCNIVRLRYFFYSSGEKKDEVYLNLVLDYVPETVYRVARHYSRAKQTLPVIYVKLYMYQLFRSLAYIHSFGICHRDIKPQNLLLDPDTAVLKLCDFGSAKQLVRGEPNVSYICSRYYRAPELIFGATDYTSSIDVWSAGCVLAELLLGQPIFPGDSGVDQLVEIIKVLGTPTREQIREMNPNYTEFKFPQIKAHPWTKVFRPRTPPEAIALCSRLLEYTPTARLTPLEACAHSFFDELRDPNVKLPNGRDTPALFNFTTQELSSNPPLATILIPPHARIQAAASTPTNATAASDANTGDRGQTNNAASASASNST
Experimental: as §1, §2

SYK = target: T12, SYK (Homo sapiens, UniProt P43405); test: Kinome screen, SYK; assay type: binding; details: screened at 1 μM
T12 construct: made in house; host or cells: T7 phage in E. coli (BL21-derived) or HEK-293
Experimental: as §1, §2

SLK = target: T13, SLK (Homo sapiens, UniProt Q9H2G2); test: Kinome screen, SLK; assay type: binding; details: screened at 1 μM
T13 construct: made in house; host or cells: T7 phage in E. coli (BL21-derived) or HEK-293
Experimental: as §1, §2

SRC = target: T14, SRC (Homo sapiens, UniProt P12931); test: Kinome screen, SRC; assay type: binding; details: screened at 1 μM
T14 construct: made in house; host or cells: T7 phage in E. coli (BL21-derived) or HEK-293
Experimental: as §1, §2

EPHB6 = target: T15, EPHB6 (Homo sapiens, UniProt O15197); test: Kinome screen, EPHB6; assay type: binding; details: screened at 1 μM
T15 construct: made in house; host or cells: T7 phage in E. coli (BL21-derived) or HEK-293
Experimental: as §1, §2

KIT = target: T16, KIT (Homo sapiens, UniProt P10721); test: Kinome screen, KIT; assay type: binding; details: screened at 1 μM
T16 construct: made in house; host or cells: T7 phage in E. coli (BL21-derived) or HEK-293
Experimental: as §1, §2

[2] = Solid state stability assessment of Form 1; assay type: physicochemical
Experimental: Samples of the Form 1 crystalline free form of the invention were stored at 25° C. and 60% relative humidity (RH) and at 40° C. and 75% RH under two configurations a) open glass vial and b) closed glass vial placed inside an HDPE bottle containing desiccant. HDPE bottle was induction sealed. At specific intervals, the contents of a representative sample were removed and analyzed by HPLC for chemical purity (shown below as HPLC Purity (% a/a)).

[3] = Dynamic moisture sorption assessment; assay type: physicochemical; details: for weight gain, 5% to 70% relative humidity / weight gain, 5% to 90% relative humidity: room temperature
Experimental: Dynamic moisture sorption (DMS) measurement was performed using a VTI atmospheric microbalance, SGA-100 system (VTI Corp., Hialeah, Fla. 33016). A weighed sample was used and the humidity was lowest possible value (close to 0% RH) at the start of the analysis. The DMS analysis consisted of an initial drying step (0% RH) for 120 minutes, followed by two cycles of sorption and desorption with a scan rate of 5% RH/step over the humidity range of 5% RH to 90% RH. The DMS run was performed isothermally at 25° C.

T1 sequence (P50613 whole entry): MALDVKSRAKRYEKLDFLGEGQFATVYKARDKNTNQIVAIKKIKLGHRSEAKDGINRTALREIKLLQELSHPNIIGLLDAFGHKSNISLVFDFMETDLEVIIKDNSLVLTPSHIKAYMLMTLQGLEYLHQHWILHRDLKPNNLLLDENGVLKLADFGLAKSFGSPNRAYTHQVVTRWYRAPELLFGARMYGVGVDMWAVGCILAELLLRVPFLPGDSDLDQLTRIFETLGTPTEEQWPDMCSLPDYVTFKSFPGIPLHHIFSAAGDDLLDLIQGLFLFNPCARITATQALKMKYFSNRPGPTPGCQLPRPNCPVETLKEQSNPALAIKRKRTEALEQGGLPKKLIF

`CCc1cc(O)c(F)cc1-c1ccc2c(-c3nc4c([nH]3)CCN(C(=O)CN3CCOCC3)C4)n[nH]c2c1` [C-1, 1-(2-(6-(2-Ethyl-5-fluoro-4-hydroxyphenyl)-1H-indazol-3-yl)-1,4,6,7-tetrahydro-5H-imidazo[4,5-c]pyridin-5-yl)-2-morpholinoethan-1-one, reference compound] showed an inhibition at 1 µM (CDK7) of 99%, an inhibition at 1 µM (ALK) of 81% and an inhibition at 1 µM (PLK4) of 68%. The inhibition at 1 µM (VEGFR2) was 63%, the inhibition at 1 µM (PAK4) was 99% and the CC15 [1] was 630 nM. For the same molecule, the GINI coefficient (35 different kinases) was 0.46, the inhibition at 1 µM (CDK9) was 95% and the inhibition at 1 µM (PKAC-ALPHA) was 70%. It also gave an inhibition at 1 µM (CSF1R) of 100%, an inhibition at 1 µM (AURKA) of 57% and an inhibition at 1 µM (CDK2) of 53%. It also gave an inhibition at 1 µM (GSK3B) of 68%, an inhibition at 1 µM (SYK) of 78% and an inhibition at 1 µM (SLK) of 100%. The inhibition at 1 µM (SRC) was 100%, the inhibition at 1 µM (EPHB6) was 98% and the inhibition at 1 µM (KIT) was 99%.

For `CCc1cc(O)c(F)cc1-c1cc(F)c2c(-c3nc4c([nH]3)CCN(C(=O)CN3CCOCC3)C4)n[nH]c2c1` [Form 1, 1-(2-(6-(2-Ethyl-5-fluoro-4-hydroxyphenyl)-4-fluoro-1H-indazol-3-yl)-1,4,6,7-tetrahydro-5H-imidazo[4,5-c]pyridin-5-yl)-2-morpholinoethan-1-one], the “HPLC Purity” value ([2]; 2 weeks, 40° C./75% RH Open) was 98.72 % a/a, the “HPLC Purity” value ([2]; 4 weeks, 25° C./60% RH Closed With Desiccant) was 98.75 % a/a and the “HPLC Purity” value ([2]; 4 weeks, 25° C./60% RH Open) was 98.75 % a/a. For the same molecule, the “HPLC Purity” value ([2]; 4 weeks, 40° C./75% RH Closed With Desiccant) was 98.75 % a/a, the “HPLC Purity” value ([2]; 4 weeks, 40° C./75% RH Open) was 98.70 % a/a and the “HPLC Purity” value ([2]; 8 weeks, 25° C./60% RH Closed With Desiccant) was 98.87 % a/a. The “HPLC Purity” value ([2]; 8 weeks, 25° C./60% RH Open) was 98.75 % a/a, the “HPLC Purity” value ([2]; 8 weeks, 40° C./75% RH Closed With Desiccant) was 98.80 % a/a and the “HPLC Purity” value ([2]; 8 weeks, 40° C./75% RH Open) was 98.97 % a/a. The “HPLC Purity” value ([2]; 24 weeks, 25° C./60% RH Closed With Desiccant) was 99.02 % a/a, the “HPLC Purity” value ([2]; 24 weeks, 25° C./60% RH Open) was 98.78 % a/a and the “HPLC Purity” value ([2]; 24 weeks, 40° C./75% RH Closed With Desiccant) was 99.06 % a/a. The “HPLC Purity” value ([2]; 24 weeks, 40° C./75% RH Open) was 98.89 % a/a, the “HPLC Purity” value ([2]; 36 weeks, 25° C./60% RH Closed With Desiccant) was 98.80 % a/a and the “HPLC Purity” value ([2]; 36 weeks, 25° C./60% RH Open) was 98.75 % a/a. The “HPLC Purity” value ([2]; 36 weeks, 40° C./75% RH Closed With Desiccant) was 98.86 % a/a, the “HPLC Purity” value ([2]; 36 weeks, 40° C./75% RH Open) was 98.71 % a/a and the “changes in chemical purity” value ([2]; after 36 weeks at accelerated conditions of 40° C. and 75% relative humidity) was “no statistically significant changes”. For the same molecule, the “HPLC Purity” value ([2]; time point 0 weeks) was 98.73 % a/a, the “hygroscopicity” value [3] was “slightly-hygroscopic” and the “weight gain, 5% to 70% relative humidity” value [3] was “about 0.99%”. For the same molecule, the “weight gain, 5% to 90% relative humidity” value [3] was “about 1.32%”.

In the case of `CCc1cc(O)c(F)cc1-c1cc(F)c2c(-c3nc4c([nH]3)CCN(C(=O)CN3CCOCC3)C4)n[nH]c2c1` [Form 2, 1-(2-(6-(2-Ethyl-5-fluoro-4-hydroxyphenyl)-4-fluoro-1H-indazol-3-yl)-1,4,6,7-tetrahydro-5H-imidazo[4,5-c]pyridin-5-yl)-2-morpholinoethan-1-one], the “hygroscopicity” value [3] is reported as “non-hygroscopic”, the “weight gain, 5% to 70% relative humidity” value [3] is reported as “about 0.12%” and the “weight gain, 5% to 90% relative humidity” value [3] is reported as “about 0.18%”.
